Patent publication US4771044A, “Tetraoxo compounds and pharmaceutical compositions” (Kali-Chemie Pharma GmbH, priority 1985, dated 1988)
Like-named read-outs stand apart in the source and are kept apart here.

Columns and labels:
male NMRI-mice = experiment: Inducement of head-shaking syndrome in mice by interaction with subthreshold dose of 5-HTP, antidepressive properties; assay type: in vivo; conditions: mouse, p.o.; pargyline 25 mg/kg i.p. pretreatment, 50 mg/kg 5-HTP i.p.; 60 min
Protocol: 3. Evaluation of antidepressive properties.
This effect is typical of antidepressives. For this a modified method according to Corne et al (see Br.J.Pharmacol. 20, pp 106-120) is used to determine the ability of the compounds to induce a head-shaking syndrome in mice in interaction with a subthreshold dose of 5-HTP.
Male NMRI-mice having a body weight of 20-30 g are used. 60 min. prior to administration of the test compounds the animals are given an i.p. injection of 25 mg/kg of the MAO-inhibitor pargyline dissolved in a volume of 10 ml/kg of 2% tylose solution. Groups of 20 animals are used for each dose of the test compounds. The test compounds are administered per os in a volume of 10 ml/kg of 2% tylose solution. After 30 min. 50 mg/kg 5-HTP in a volume of 10 ml/kg of 2% tylose solution are injected i.p. and each animal is placed in a case individually. A group of control animals receives only the pargyline injection, the 5-HTP injection and 2% tylose solution p.o.
60 min. after administration of the test compounds (=30 min. after 5-HTP injection) the animals are observed for 120 sec. in order to check, whether or not the head-shaking-syndrome occurs.
The ED50 is defined as the dose at which the number of animals showing a head-shake-syndrome is increased by 50% as compared with the control group.

female Wistar rats [1] = experiment: Behavioral changes of rats in punishment conflict situation (Skinner box), anxiolytic properties; assay type: in vivo, rat; conditions: po, 1 h
Protocol: 4. Evaluation of anxiolytic properties.
For evaluating the anxiolytic properties of the compounds a modified method according to Davidson et al (see The Benzodiazepines, Raven Press New York 1973 pp 327-345) is used, whereby the ability of the compounds to change the behavior of rats in a punishment conflict situation is examined.
In order to create the conflict situation the following experimental set up and procedure are used:
The tests are performed in Skinner boxes which are provided with an electrifyable grid-floor, a lever which has to be pressed by the rat, an automatic feeder and 2 different light sources. Female Wistar rats having a body weight of 180-300 g are used. Prior to testing the animals are trained to obtain food by pressing the lever, whereby 2 phases of different conditions alternate. The two phases are distinguished by different lightening. During one phase a food reward is given at a fixed ratio after each 10th lever press (=FR 10), yet simultaneous by with the food pellet an electric food shock punishment is delivered. During the other phase food reward is obtained without any electric punishment, yet lever pressing is rewarded with a food pellet far less frequently and at varying time intervals only (average interval 30 sec=VI30). During each […]. trial session […] alternate with 6 FP10 phases (120 sec. each).
For testing the compounds each animal is subjected to the 47 min. test procedure once a day on 4 consecutive days always at the same time. On days 1, 2 and 3 the animals are given per os 10 ml/kg of 2% tylose soluton 60 min. prior to test begin. On day 4 they are given a dose of the test compound in the tylose solution. For each animal the number of lever press responses in the punished FR10 phases and in the unpunished VI30 phases are recorded seperately for each day. For each animal the mean values from the results of the first three days are taken as control values. The results from the 4th day are compared with these control values. The lowest doses which produce significant changes in the number of lever presses are determined for the unpunished phase and for the punished phase as the minimum effective doses (=MEDup and MEpp). Increased activity during the punished phase is due to anxiolytic effects of the test compound. Reduced activity during the unpunished phase is an indication of sedative effects of the compound.

female Wistar rats [2] = experiment: CAR-test (conditioned avoidance response) in rats, antipsychotic properties; assay type: in vivo; conditions: po, 1 h, rat, per os, one hour prior to testing
Protocol: 2. Evaluation of antipsychotic properties in the CAR-test procedure in rats.
The CAR test is performed in a modification of the experimental set up described by Capaldi et al (see R. D. Myers (ed): Methods in Psychobiology, Academic Press, New York, pp. 71-74). Fully automated one-way shuttle boxes are used, which are divided into 2 compartments by a wall with a hole. The floor of the box is a grid of stainless steel through which electric stimuli can be delivered. The ceiling of the box is provided with a lamp and a loudspeaker giving a buzzertone. In order to avoid the electric stimulus in the first starting compartment the animals can cross over into the safe second compartment.
During the test procedure the animals are placed into the starting compartment and at the same time the light and the loudspeaker are switched on as a warning signal (=conditioned stimulus). If at this warning signal already the animals cross over into the safe compartment, this is considered a CAR and is automatically recorded. If the animals don't cross over into the safe compartment within 5 sec. an electric shock is delivered additionally through the floor grid (=unconditioned stimulus) for a period of up to 15 sec. If at the presentation of the electric shock the animals cross over into the safe compartment, this is considered an unconditioned escape response (=UER). As soon as the animals have crossed over into the safe compartment the stimuli are switched off automatically.
For the test female Wistar rats having a body weight of 140-210 g are used. They are trained in a 20 trial session on the day before and only such animals which show CAR exclusively are used for the drug experiments.
Groups of 4 animals are used for each dose of the test compounds, the animals are placed into the test situation 15 times each, and the average value of the last 10 trials is taken into account.
The test compounds are administered per os in a volume of 10 ml/kg of 2% tylose solution one hour prior to testing. To a control group tylose solution only is administered. The dose which reduces CAR by 50% and thus leads to a 50% avoidance block is determined (=ED50 AB). Furthermore the dosis which reduces UER by 50% and thus leads to a 50% escape block is determined (=ED50 EB).

male mice = conditions: mouse, in vivo, 1440 min
Protocol: 1. Determination of Minimum Toxic Dose
Male mice weighing 20 to 25 g are administered per os and i.p. maximum doses of 300 mg/kg of the test substances. The animals are carefully observed for three hours for toxic symptoms. During a period of 24 hours following the administration all symptoms and deaths are recorded. Side reactions are likewise observed and recorded. When death or strong toxic symptoms are observed, further mice are administered increasingly smaller doses. The lowest dose which produces death or strong toxic symptoms is given as the minimum toxic dose.

[3] = rat, p.o., punished FR10 phase, 60 min. prior to test, read-out: MEDPP (minimum effective dose, punished phase)
[4] = rat, p.o., unpunished VI30 phase, 60 min. prior to test, read-out: MEDUP (minimum effective dose, unpunished phase)
[5] = read-out: ED50 AB (dose leading to 50% avoidance block)
[6] = read-out: ED50 EB (dose leading to 50% escape block)

Row | Compound | ED50, inducement of head-shaking-syndrome by interaction with 5-HTP (male NMRI-mice) [µmol/kg] | minimal effective dose (female Wistar rats [1]; [3]) [µmol/kg] | minimal effective dose (female Wistar rats [1]; [4]) [µmol/kg] | ED50 (female Wistar rats [2]; [5]) [µmol/kg] | ED50 (female Wistar rats [2]; [6]) [µmol/kg] | Minimum Toxic Dose (male mice; ip) [mg/kg] | Minimum Toxic Dose (male mice; po) [mg/kg] | minimal effective dose (female Wistar rats [1]; Rattus norvegicus, read-out: MEDPP (minimum effective dose, punished phase)) [µmol/kg] | minimal effective dose (female Wistar rats [1]; Rattus norvegicus, read-out: MEDUP (minimum effective dose, unpunished phase)) [µmol/kg]
1 | CCCCCCN1C(=O)C2C(=O)N(CCCCCN3CCN(c4ccccc4OC)CC3)C(=O)C(C1=O)C2(C)C [Compound 3142] | 74 | – | – | – | – | – | – | – | –
2 | CCCCN1C(=O)C2C(=O)N(CCCCN3CCN(c4ccccc4OC)CC3)C(=O)C(C1=O)C2(C)C [Compound 3107] | – | 14.7 | 147 | 27 | 70 | 200 | > 300 | – | –
3 | CN1C(=O)CN=C(c2ccccc2)c2cc(Cl)ccc21 [Diazepam, reference compound] | – | – | – | – | – | – | – | 31.6 | 46.4
4 | CCCCN1C(=O)C2C(=O)N(CCCCN3CCN(c4ncccn4)CC3)C(=O)C(C1=O)C2(C)C [Compound 3304] | – | 21.5 | > 215 | – | – | – | – | – | –
5 | CCCCN1C(=O)C2C(=O)N(CCCCN3CCN(c4ccccc4OCC)CC3)C(=O)C(C1=O)C2(C)C [Compound 3110] | – | 6.8 | > 215 | 50 | 200 | > 300 | > 300 | – | –
6 | CCCCN1C(=O)C2C(=O)N(CCCCN3CCN(c4ccc(F)cc4)CC3)C(=O)C(C1=O)C2(C)C [Compound 3135] | 72 | – | – | – | – | > 300 | > 300 | – | –
7 | CCCCCCN1C(=O)C2C(=O)N(CCCCCN3CCN(c4cccc(C)c4)CC3)C(=O)C(C1=O)C2(C)C [Compound 3143] | 130 | – | – | – | – | > 300 | > 300 | – | –
